Laboratory results: PubChem BioAssay AID1845213 (Molecular Pharmacology Branch, DTP, NCI, 2023)
“And” between values parts separate entries of the source, which are not always exact repeats. Equal values may be shown once. The source made the active and inactive calls. Rule for the calls: active = viability on the fitted dose curve at most 10% of control; inactive = the rest.

Tested on: NCI-H841 complex tumor spheroid viability
Experiment: Anticancer human tumor NCI-H841 cell line growth inhibition;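 for IC50: spheroids exposed to compounds for 7 days before readout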;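 for viability, T/C: spheroids exposed to compounds for 7 days before readout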
Conditions: for viability, T/C: stronger effect = lower value
Description: Multicellular complex tumor spheroid response to DNA repair inhibitors in combination with DNA-damaging drugs
This study explores the anticancer activities of DNA-damaging drugs and inhibitors of DNA damage repair, both as single agents and in combinations. Complex tumor spheroids comprised of malignant cells, endothelial cells and mesenchymal stem cells served as an in vitro model for human solid tumors. This model system incorporates physiologically relevant features and patient-derived or established malignant cell lines with clinically relevant genetic alterations from many tumor types. Twenty-six patient-derived or established malignant cell lines were evaluated representing sarcoma, melanoma, small cell lung cancer (SCLC), non-small cell lung cancer (NSCLC), as well as bladder, ovarian and pancreatic cancers. The concentration ranges selected for each drug and investigational agent were based upon clinically achievable concentrations if the clinical Cmax of the agent was known.
Compounds. The drugs and compounds olaparib (NSC753686), talazoparib (NSC767125), berzosertib (NSC777718), elimusertib (NSC800525), nedisertib (NSC802822), VX-984 (NSC792969), AZD-1390 (NSC803789), temozolomide (NSC362856), topotecan (NSC609699), trabectedin (NSC813783), staurosporine (NSC755774), and gemcitabine (NSC613327) were obtained from the National Cancer Institute (NCI) Developmental Therapeutics Program Chemical Repository. The FDA-approved anticancer drug set is available from the Developmental Therapeutics Program at https://dtp.cancer.gov/organization/dscb/obtaining/available_plates.htm. […] The stock solutions were prepared in dimethyl sulfoxide (DMSO, Sigma-Aldrich, St. Louis, MO, cat. D2650) at 400-fold the tested concentration and stored at -70 degrees C. Prior to their use, the stock solutions were diluted in fresh medium and the final DMSO concentration in the assay was 0.25% (v/v). All drugs and investigational agents were tested over a range starting from a high concentration at or near the clinical Cmax and decreasing in half-log increments. If the clinical Cmax for an agent had not been determined, the highest concentration tested was 10 microM.
Cell Lines. The patient-derived cancer cell (PDC) lines: 156681-154-R-J1-PDC, 283228-195-R-J1-PDC, 287954-098-R-J1-PDC, 292921-168-R-J2-PDC, 349418-098-R-PDC, 425362-245-T-J1-PDC, 556581-035-R-J1-PDC, and BL0293-F563-PDC were received from the NCI Patient-Derived Models Repository (PDMR, https://pdmr.cancer.gov). The established cell lines HS-SY-2 (RRID:CVCL_8719), MPNST, and SYO-1 (RRID:CVCL_7146) were obtained from the Sloan Kettering Institute. The alveolar soft parts sarcoma cell line ASPS-1 (RRID:CVCL_S738) was established at the NCI and grown from internal seed stocks. The following established cell lines were purchased from the American Type Culture Collection (ATCC, Manassas, VA): G-401 (ATCC, cat. CRL-1441, RRID:CVCL_0270), SW982 (ATCC, cat. HTB-93, RRID:CVCL_1734), VA-ES-BJ (ATCC, cat. CRL-2138, RRID:CVCL_1785), NCI-H719 (ATCC, cat. CRL-5837, RRID:CVCL_1582), NCI-H196 (ATCC, cat. CRL-5823, RRID:CVCL_1509), NCI-H841 (ATCC, cat. CRL-5845, RRID:CVCL_1595), NCI-H1618 (ATCC, cat. CRL-5879, RRID:CVCL_1480), NCI-H1876 (ATCC, cat. CRL-5902, RRID:CVCL_1503), DMS 114 (ATCC, cat. CRL-2066; RRID:CVCL_1174), NCI-H211 (ATCC, cat. CRL-5824; RRID:CVCL_1529), and SW 1271 (ATCC, cat. CRL-2177, RRID:CVCL_1716). The small cell lung cancer cell line COR-L88 was purchased from Sigma-Aldrich (cat. 92031917-1VL, RRID:CVCL_1141). The non-small cell lung cancer cell lines NCI-H226 (RRID:CVCL_1544) and NCI-H322M (RRID:CVCL_1557) were established at the NCI and grown from internal seed stocks. Pooled donor human umbilical vein endothelial cells (HUVEC, Lonza, cat. CC-2519) and human mesenchymal stem cells (hMSC, Lonza, cat. PT-2501) were purchased from Lonza (Walkersville, MD).
Cell Culture. All cells were maintained in an incubator at 37 degrees C and 5% CO2 with 95% humidity. […]

[1] = curve of first compound, second compound 30 pM
[2] = curve of first compound, second compound 94.9 pM
[3] = curve of first compound, second compound 0.0003 µM
[4] = curve of first compound, second compound 0.000949 µM
[5] = curve of first compound, second compound 0.003 µM
[6] = second compound 30 pM, first compound 0.0316 µM
[7] = second compound 30 pM, first compound 0.1 µM
[8] = second compound 30 pM, first compound 0.316 µM
[9] = second compound 30 pM, first compound 1 µM
[10] = second compound 30 pM, first compound 3.16 µM
[11] = second compound 30 pM, first compound 10 µM
[12] = second compound 94.9 pM, first compound 0.0316 µM
[13] = second compound 94.9 pM, first compound 0.1 µM
[14] = second compound 94.9 pM, first compound 0.316 µM
[15] = second compound 94.9 pM, first compound 1 µM
[16] = second compound 94.9 pM, first compound 3.16 µM
[17] = second compound 94.9 pM, first compound 10 µM
[18] = second compound 0.0003 µM, first compound 0.0316 µM
[19] = second compound 0.0003 µM, first compound 0.1 µM
[20] = second compound 0.0003 µM, first compound 0.316 µM
[21] = second compound 0.0003 µM, first compound 1 µM
[22] = second compound 0.0003 µM, first compound 3.16 µM
[23] = second compound 0.0003 µM, first compound 10 µM
[24] = second compound 0.000949 µM, first compound 0.0316 µM
[25] = second compound 0.000949 µM, first compound 0.1 µM
[26] = second compound 0.000949 µM, first compound 0.316 µM
[27] = second compound 0.000949 µM, first compound 1 µM
[28] = second compound 0.000949 µM, first compound 3.16 µM
[29] = second compound 0.000949 µM, first compound 10 µM
[30] = second compound 0.003 µM, first compound 0.0316 µM
[31] = second compound 0.003 µM, first compound 0.1 µM
[32] = second compound 0.003 µM, first compound 0.316 µM
[33] = second compound 0.003 µM, first compound 1 µM
[34] = second compound 0.003 µM, first compound 3.16 µM
[35] = second compound 0.003 µM, first compound 10 µM

[2H]c1nc(C)nc([2H])c1-c1cc(NC[C@@H](C)c2cccc3c(C(=O)NC)ccnc23)ncn1 + COc1cc2c(cc1O)CCNC21CSC2c3c(OC(C)=O)c(C)c4c(c3C(COC1=O)N1C(O)C3Cc5cc(C)c(OC)c(O)c5C(C21)N3C)OCO4
IC50 [1]: > 10000 nM
IC50 [2]: > 10000 nM
IC50 [3]: < 31.6 nM
IC50 [4]: < 31.6 nM
IC50 [5]: < 31.6 nM
viability, T/C [6]: 98.7%
viability, T/C [7]: 101%
viability, T/C [8]: 102%
viability, T/C [9]: 99.4%
viability, T/C [10]: 97.2%
viability, T/C [11]: 96.2%
viability, T/C [12]: 101%
viability, T/C [13]: 102%
viability, T/C [14]: 98%
viability, T/C [15]: 96.9%
viability, T/C [16]: 96.9%
viability, T/C [17]: 93%
viability, T/C [18]: 40%
viability, T/C [19]: 47.3%
viability, T/C [20]: 38.3%
viability, T/C [21]: 34.7%
viability, T/C [22]: 39.7%
viability, T/C [23]: 20.1%
viability, T/C [24]: 3.9%
viability, T/C [25]: 2.99%
viability, T/C [26]: 3.31%
viability, T/C [27]: 3.19%
viability, T/C [28]: 3.35%
viability, T/C [29]: 3.46%
viability, T/C [30]: 0.12%
viability, T/C [31]: 0.1%
viability, T/C [32]: 0.1%
viability, T/C [33]: 0.1%
viability, T/C [34]: 0.12%
viability, T/C [35]: 0.17%

CC1COCCN1c1cc(-c2ccnn2C)c2ccnc(-c3ccn[nH]3)c2n1 (configuration not stated)
viability, T/C (compound 0.0316 µM): 77.2% and 68.7% and 83.9%
viability, T/C (compound 0.1 µM): 16.2% and 27.3% and 39.8%
viability, T/C (compound 0.316 µM): 4.34% and 9.62% and 7.72%
viability, T/C (compound 1 µM): 1.61% and 3.17% and 2.67%
viability, T/C (compound 3.16 µM): 1.48% and 2.14% and 1.89%
viability, T/C (compound 10 µM): 1.73% and 2.18% and 2.49%
IC50 (curve of compound): 52.8 nM and 53.1 nM and 76.6 nM

CC1COCCN1c1cc(-c2ccnn2C)c2ccnc(-c3ccn[nH]3)c2n1 (configuration not stated) + COc1cc2c(cc1O)CCNC21CSC2c3c(OC(C)=O)c(C)c4c(c3C(COC1=O)N1C(O)C3Cc5cc(C)c(OC)c(O)c5C(C21)N3C)OCO4
IC50 [1]: < 31.6 nM
IC50 [2]: < 31.6 nM
IC50 [3]: < 31.6 nM
IC50 [4]: < 31.6 nM
IC50 [5]: < 31.6 nM
viability, T/C [6]: 26.5%
viability, T/C [7]: 3.12%
viability, T/C [8]: 1.47%
viability, T/C [9]: 0.86%
viability, T/C [10]: 1.08%
viability, T/C [11]: 1.34%
viability, T/C [12]: 4.85%
viability, T/C [13]: 0.92%
viability, T/C [14]: 0.73%
viability, T/C [15]: 0.72%
viability, T/C [16]: 0.85%
viability, T/C [17]: 1.34%
viability, T/C [18]: 0.85%
viability, T/C [19]: 0.44%
viability, T/C [20]: 0.46%
viability, T/C [21]: 0.56%
viability, T/C [22]: 0.59%
viability, T/C [23]: 0.82%
viability, T/C [24]: 0.34%
viability, T/C [25]: 0.28%
viability, T/C [26]: 0.24%
viability, T/C [27]: 0.15%
viability, T/C [28]: 0.06%
viability, T/C [29]: 0.21%
viability, T/C [30]: 0.12%
viability, T/C [31]: 0.12%
viability, T/C [32]: 0.11%
viability, T/C [33]: 0.1%
viability, T/C [34]: 0.11%
viability, T/C [35]: 0.17%

COc1ccc([C@@H](O)c2cc(-c3ncnc4cc(N5CCOCC5)ccc34)c(F)cc2Cl)nn1 + Cn1nnc2c(C(N)=O)ncn2c1=O
IC50 (curve of first compound, second compound 1 µM): 2040 nM
IC50 (curve of first compound, second compound 3.16 µM): 2010 nM
IC50 (curve of first compound, second compound 10 µM): 2050 nM
IC50 (curve of first compound, second compound 31.6 µM): 2270 nM
IC50 (curve of first compound, second compound 100 µM): 1820 nM
viability, T/C (second compound 1 µM, first compound 0.0316 µM): 100%
viability, T/C (second compound 1 µM, first compound 0.1 µM): 99.1%
viability, T/C (second compound 1 µM, first compound 0.316 µM): 92.7%
outcome (second compound 1 µM, first compound 1 µM): inactive
viability, T/C (second compound 1 µM, first compound 3.16 µM): 36%
viability, T/C (second compound 1 µM, first compound 10 µM): 7.89%
viability, T/C (second compound 3.16 µM, first compound 0.0316 µM): 102%
viability, T/C (second compound 3.16 µM, first compound 0.1 µM): 104%
viability, T/C (second compound 3.16 µM, first compound 0.316 µM): 97.1%
viability, T/C (second compound 3.16 µM, first compound 1 µM): 70.7%
viability, T/C (second compound 3.16 µM, first compound 3.16 µM): 36.4%
viability, T/C (second compound 3.16 µM, first compound 10 µM): 8.99%
viability, T/C (second compound 10 µM, first compound 0.0316 µM): 103%
viability, T/C (second compound 10 µM, first compound 0.1 µM): 105%
viability, T/C (second compound 10 µM, first compound 0.316 µM): 91%
viability, T/C (second compound 10 µM, first compound 1 µM): 80.1%
viability, T/C (second compound 10 µM, first compound 3.16 µM): 32.1%
viability, T/C (second compound 10 µM, first compound 10 µM): 9.08%
viability, T/C (second compound 31.6 µM, first compound 0.0316 µM): 97.5%
viability, T/C (second compound 31.6 µM, first compound 0.1 µM): 99.7%
viability, T/C (second compound 31.6 µM, first compound 0.316 µM): 95.3%
viability, T/C (second compound 31.6 µM, first compound 1 µM): 79.3%
viability, T/C (second compound 31.6 µM, first compound 3.16 µM): 38.1%
viability, T/C (second compound 31.6 µM, first compound 10 µM): 8.74%
viability, T/C (second compound 100 µM, first compound 0.0316 µM): 97.5%
viability, T/C (second compound 100 µM, first compound 0.1 µM): 100%
viability, T/C (second compound 100 µM, first compound 0.316 µM): 87%
viability, T/C (second compound 100 µM, first compound 1 µM): 71%
viability, T/C (second compound 100 µM, first compound 3.16 µM): 31.5%
viability, T/C (second compound 100 µM, first compound 10 µM): 7.13%
